# Earlier results as cited in PMC10646941 (Chemical Science, 2023).
# Molecular target: SARS-CoV-2 3C-Like Protease
compound,measurement,value
CC(C)(C)[C@H](NC(=O)C(F)(F)F)C(=O)N1C[C@H]2[C@@H]([C@H]1C(=O)N[C@H](C#N)C[C@@H]1CCNC1=O)C2(C)C [nirmatrelvir],kinact/Ki,55 mM⁻¹ s⁻¹
